According to paper PMC535546, “Assessment of FIV-C infection of cats as a function of treatment with the protease inhibitor, TL-3” (Retrovirology, 2004):

Legend:
[1] = Tolerability of oral TL-3 in uninfected control cats; assay type: in vivo, cat; conditions: TL-3 treated controls, 20 mg then 40 mg oral every eight hours
Description: (§1) All procedures for care of cats during dosing as well as dosing procedures were mandated by TSRI's IACUC. Oral TL-3 (L-Iditol,1,2,5,6-tetradeoxy-1,6-diphenyl-2,5-bis [N-[(phenylmethoxy)carbonyl]-L-alanyl-L-valyl]amino]) treatment was initiated in 12 cats, three days prior to infection of ten of the twelve animals with FIV-C. All TL-3 treated animals received 20 mg TL-3 by capsules at eight hour intervals, for approx. the first 7.5 weeks of the experiment. Dosage was then doubled to 40 mg TL-3 per dose at eight hour intervals for an additional week for the two control animals and the eight surviving animals in the TL-3 treated, infected cohort.

[2] = tested on: FIV; parameters: method as in PMID 9448264; conditions: cited from earlier work
[3] = target: T1, FIV-C protease mutant N55D (HIV46M) (Feline immunodeficiency virus, UniProt P16088, N93D); experiment: Inhibitor constant (Ki) of TL-3 against mutant FIV-C protease N55D; assay type: biochemical; conditions: PR mutation N55D (HIV46M), cat 231
T1 construct: adds a stop codon and a Hind III restriction site to the C-terminus of the protease; Met-Ala N-terminal extension (printed 'methionine, and alkaline'; the primer codes ATG GCA) (N); made in house; host or cells: E. coli Rosetta pLysS, pET21a
Description: (§2) Complementary DNA (cDNA) was synthesized from isolated plasma viral RNA of infected cats. […] The amplified PCR product was gel purified and cloned into pCR-TOPOII vector (Invitrogen, Carlsbad, CA) for sequencing. Selected DNA of mutants, N55D, H72R, D105G, and M107R were digested with Nde I/Hind III and ligated into pET21a expression vector (Novagen). The mutant FIV-C proteases were expressed in Rosetta pLysS cells (Novagen) and purified as previously described.
(§3) Enzyme kinetics of FIV-C protease were assayed on the flourogenic substrate Arg-Ala-Leu-Thr-Lys(Abz)-Val-Gln/Phe(NO2)-Val-Gln-Ser-Lys-Gly-Arg-NH2. […] Inhibitor constant (Ki) of TL-3 against mutant FIV-C protease was analyzed as described.

[4] = tested on: HIV-1; parameters: method as in PMID 9448264; conditions: cited from earlier work
[5] = target: wild-type FIV-C protease; experiment: Inhibitor constant (Ki) of TL-3 against wild-type FIV-C protease, fluorogenic substrate; assay type: biochemical, feline immunodeficiency virus (FIV-C); conditions: wildtype PR
Description: as §2, §3

[6] = tested on: FIV-PPR; conditions: FIV-PPR infected cats; cited from earlier work
[7] = tested on: FIV-C (CABCpady00C); experiment: FIV-C infection of cats with oral TL-3 treatment (viral load, disease, survival); assay type: in vivo, cat
Description: Twenty-two female specific pathogen-free (SPF) cats were randomly divided into five groups. Group 0 consisted of two cats, which received TL-3 treatment without viral infection and were considered controls. Group 1 (n = 5) received 0.1 ml (10^5 RNA copies/ml) of FIV-C-infected plasma I.V. with TL-3 drug treatment. Group 2 (n = 5) received 0.1 ml FIV-C-infected plasma without TL-3 treatment. Group 3 (n = 5) received 0.5 ml FIV-C-infected plasma with TL-3 and Group 4 (n = 5) received 0.5 ml FIV-C-infected plasma without TL-3 treatment. Blood (1 ml) was drawn from all cats prior to the start of the experiment, at weekly intervals for the first four weeks after infection, and at bi-monthly intervals from week 4 until the end of the study. Complete blood counts were assessed as a function of infection and TL-3 treatment. In addition, quantitative reverse transcription PCR (QRT-PCR) analyses were performed to assess plasma viral load. All animals were continuously observed for any changes in general health. No significant differences were noted between viral load or disease phenotype between the two plasma dosages used in infection and subsequent discussion will not distinguish between these two groups.
Plasma samples (10^5 RNA copies/ml) from a cat, that had died from an acute infection with CABCpady00C (FIV-C), were kindly provided by Dr. E. Hoover, of Colorado State University. Cats were injected I.V. with either 0.1 ml (10^5 RNA copies/ml) or 0.5 ml of plasma.
as §1
Animals were examined daily and in case of health concerns further therapy/diagnostics were initiated. Animals with abnormal weight, or on antibiotics were placed on supplemental feeding with moist food and Nutrical. Dehydrated animals received subcutaneous fluid therapy. More affected animals received supportive care and medications, consisting of BID administration of antibiotics (Baytril), BID subcutaneous fluid therapy, BID temperature evaluation, BID application of antibiotic ophthalmic ointment supportive care. Any animals that required extensive supportive care (TID fluid therapy, TID force feeding) were euthanized. Euthanasia of research animals was conducted with strict adherence to NIH Office of Laboratory Animal Welfare protocols.
Plasma for weeks 0, 2, 4, 6 (terminal points for cats 215, 221, and 229), 6.5 (terminal points for cats 219, 220, and 234), and 8, were isolated from whole blood by centrifugation and stored at -20°C. Viral RNA was extracted using the QiaAmp Viral RNA Isolation Kit (Qiagen, Valencia, CA) according to manufacturer's instructions with slight modifications: Plasma samples (280 μl) were lysed in buffer AVL (1,120 μl) (Qiagen) for 10 minutes at room temperature in the presence of carrier RNA (10 μg/ml) and an external Kanamycin (KAN) RNA spike. Equal amounts of the external RNA spike (10^9 copies RNA /280 μl plasma), corresponding to the 1.2 kb KAN gene (Promega, Madison, WI), was used to normalize plasma volumes between samples and to correct for sample loss from viral RNA extraction and cDNA synthesis. An on-column DNase/ RNase free (Qiagen) incubation step for 10 minutes at room temperature was added to remove residual cellular DNA. […]

[8] = target: FIV-C protease mutant D105G (HIV88N) (Feline immunodeficiency virus, UniProt P16088, D143G)
Description: as §2, §3

[9] = target: T2, FIV-C protease mutant H72R (HIV63L) (Feline immunodeficiency virus, UniProt P16088, H110R); experiment: Inhibitor constant (Ki) of TL-3 against mutant FIV-C protease H72R; assay type: biochemical; conditions: PR mutation H72R (HIV63L), cat 231
T2 construct: adds a stop codon and a Hind III restriction site to the C-terminus of the protease; Met-Ala N-terminal extension (printed 'methionine, and alkaline'; the primer codes ATG GCA) (N); made in house; host or cells: E. coli Rosetta pLysS, pET21a
Description: as §2, §3

[10] = tested on: SIV (simian immunodeficiency virus); parameters: method as in PMID 9448264; conditions: cited from earlier work

In the case of `CC(C)[C@H](NC(=O)[C@H](C)NC(=O)OCc1ccccc1)C(=O)N[C@@H](Cc1ccccc1)[C@@H](O)[C@H](O)[C@H](Cc1ccccc1)NC(=O)[C@@H](NC(=O)[C@H](C)NC(=O)OCc1ccccc1)C(C)C` [TL-3], the adverse effects [1] is given as “No adverse effects”, the “inhibition of infection in vitro” value [2] is given as “inhibits” and the Ki [3] is given as 9.1 nM. For the same molecule, the “inhibition of infection in vitro” value [4] was “inhibits”, the Ki [5] was 9.9 nM and the “effect on delays in brainstem auditory evoked potentials (BAEPs)” value [6] was “could reverse this effect”. The “effect on neurologic alterations in the CNS” value [6] was “significant protective effect”, the plasma viral loads [6] was “lowered plasma viral loads” and the “animals that had lost weight” value ([7]; 6 weeks post infection, + TL-3 cohort, three also in -TL-3 cohort) was “three”. For the same molecule, the “animals that required euthanasia” value ([7]; TL-3 treated group, of six euthanized, four from untreated cohort) was “two”, the “average (peak) viral loads vs untreated animals” value ([7]; acute phase, did not reach statistical significance) was “lower” and the “animals showing clinical signs of debilitating acute phase disease” value ([7]; by week 6 post infection, TL-3 treated groups, of seven affected, four untreated) was “three”. For the same molecule, the prevention of viremia ([7]; oral monotherapy, high dose FIV-C) was “did not prevent viremia”, the “plasma viremia, TL-3 treated vs untreated cohorts” value ([7]; week 2 post infection) was “little differences in viral loads” and the “animals with viral loads below detection limits” value ([7]; week 8 post infection, surviving TL-3 treated cats, oral 20 mg every eight hours, untreated: one of six) was “four of 8 and half”. The “resistance against TL-3 relative to wild type protease” value ([8]; D105G mutant vs wild type FIV-C protease) was 5 fold, the Ki ([8]; read-out: Ki vs TL-3, PR mutation D105G (HIV88N), cloned from cats 231 and 222) was 47.3 nM and the Ki [9] was 10.9 nM. For the same molecule, the “inhibition of infection in vitro” value [10] was “inhibits”.
